# Results: US5314887A, “2-amino-1, 4-dihydropyridine derivatives with calcium agonist and alpha -antagonist activity” (The Du Pont Merck Pharmaceutical Company, priority 1992, dated 1994)
# Legend:
# [1] = biological target: T1, Ca^2+ channel (rat cardiac microsomes) (Rattus norvegicus, UniProt P22002); assay: [3H]-Nitrendipine binding assay (affinity for calcium channels); details: 0.5 nM [3H]-nitrendipine, Tris buffer, 60 minutes at 25°
# T1 construct: The reaction mixture contained rat cardiac microsomes; from tissue; host or cells: rat heart (cardiac microsomes)
# T1 sequence (P22002 whole entry, other chains not shown): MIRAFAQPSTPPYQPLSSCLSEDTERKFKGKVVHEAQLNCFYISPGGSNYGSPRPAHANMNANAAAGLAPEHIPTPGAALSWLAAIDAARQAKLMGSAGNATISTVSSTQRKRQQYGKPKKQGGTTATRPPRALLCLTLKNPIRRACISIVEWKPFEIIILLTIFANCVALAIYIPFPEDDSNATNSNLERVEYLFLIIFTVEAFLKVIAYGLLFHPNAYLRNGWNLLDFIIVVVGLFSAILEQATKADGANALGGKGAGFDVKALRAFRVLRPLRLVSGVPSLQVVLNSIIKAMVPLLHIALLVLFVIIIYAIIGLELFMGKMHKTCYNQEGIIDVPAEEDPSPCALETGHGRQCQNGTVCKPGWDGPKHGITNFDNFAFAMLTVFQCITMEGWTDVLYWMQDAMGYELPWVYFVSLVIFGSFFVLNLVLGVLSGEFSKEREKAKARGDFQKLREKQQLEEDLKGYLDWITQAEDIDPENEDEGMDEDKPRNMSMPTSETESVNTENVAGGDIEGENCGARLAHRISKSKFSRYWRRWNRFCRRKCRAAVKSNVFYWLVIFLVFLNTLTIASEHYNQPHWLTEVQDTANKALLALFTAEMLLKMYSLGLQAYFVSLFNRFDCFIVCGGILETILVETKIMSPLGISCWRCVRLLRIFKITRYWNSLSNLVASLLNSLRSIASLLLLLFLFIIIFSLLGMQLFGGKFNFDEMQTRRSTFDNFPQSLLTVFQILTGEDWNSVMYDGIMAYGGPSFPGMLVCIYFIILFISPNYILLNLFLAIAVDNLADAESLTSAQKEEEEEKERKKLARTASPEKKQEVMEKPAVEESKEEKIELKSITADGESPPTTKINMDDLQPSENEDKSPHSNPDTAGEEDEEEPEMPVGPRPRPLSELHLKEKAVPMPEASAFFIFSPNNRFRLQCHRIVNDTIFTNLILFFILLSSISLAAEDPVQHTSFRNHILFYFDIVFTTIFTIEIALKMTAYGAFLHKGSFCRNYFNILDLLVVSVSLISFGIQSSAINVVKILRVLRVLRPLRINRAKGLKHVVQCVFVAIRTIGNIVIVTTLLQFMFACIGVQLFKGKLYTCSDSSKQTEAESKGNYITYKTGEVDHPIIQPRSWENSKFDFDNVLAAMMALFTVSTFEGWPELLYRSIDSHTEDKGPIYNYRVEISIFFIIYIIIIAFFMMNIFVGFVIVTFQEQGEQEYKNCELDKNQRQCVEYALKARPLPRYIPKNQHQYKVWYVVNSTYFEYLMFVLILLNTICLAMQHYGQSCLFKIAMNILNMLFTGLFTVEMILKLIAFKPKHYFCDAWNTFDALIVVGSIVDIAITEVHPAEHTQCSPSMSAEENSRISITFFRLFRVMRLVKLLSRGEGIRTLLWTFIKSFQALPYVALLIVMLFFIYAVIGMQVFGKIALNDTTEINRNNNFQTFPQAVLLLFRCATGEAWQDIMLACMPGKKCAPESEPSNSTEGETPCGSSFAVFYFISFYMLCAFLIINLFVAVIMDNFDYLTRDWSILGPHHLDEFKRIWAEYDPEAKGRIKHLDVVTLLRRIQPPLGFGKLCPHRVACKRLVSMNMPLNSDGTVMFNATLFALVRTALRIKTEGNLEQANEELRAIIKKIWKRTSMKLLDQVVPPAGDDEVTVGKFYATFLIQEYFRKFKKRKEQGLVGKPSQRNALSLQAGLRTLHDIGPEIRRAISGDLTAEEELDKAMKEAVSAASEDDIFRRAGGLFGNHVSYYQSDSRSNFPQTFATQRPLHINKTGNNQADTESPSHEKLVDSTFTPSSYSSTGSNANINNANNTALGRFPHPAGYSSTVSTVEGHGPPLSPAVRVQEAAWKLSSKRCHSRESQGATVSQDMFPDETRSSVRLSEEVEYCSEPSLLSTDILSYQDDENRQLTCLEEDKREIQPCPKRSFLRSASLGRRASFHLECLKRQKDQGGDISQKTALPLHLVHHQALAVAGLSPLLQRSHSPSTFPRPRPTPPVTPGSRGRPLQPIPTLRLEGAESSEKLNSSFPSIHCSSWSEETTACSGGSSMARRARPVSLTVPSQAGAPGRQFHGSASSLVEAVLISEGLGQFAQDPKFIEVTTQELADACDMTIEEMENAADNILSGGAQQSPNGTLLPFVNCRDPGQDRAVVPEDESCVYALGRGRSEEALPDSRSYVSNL
# T1 sequence (P54290 25-944 partner limits assumed, other chains not shown): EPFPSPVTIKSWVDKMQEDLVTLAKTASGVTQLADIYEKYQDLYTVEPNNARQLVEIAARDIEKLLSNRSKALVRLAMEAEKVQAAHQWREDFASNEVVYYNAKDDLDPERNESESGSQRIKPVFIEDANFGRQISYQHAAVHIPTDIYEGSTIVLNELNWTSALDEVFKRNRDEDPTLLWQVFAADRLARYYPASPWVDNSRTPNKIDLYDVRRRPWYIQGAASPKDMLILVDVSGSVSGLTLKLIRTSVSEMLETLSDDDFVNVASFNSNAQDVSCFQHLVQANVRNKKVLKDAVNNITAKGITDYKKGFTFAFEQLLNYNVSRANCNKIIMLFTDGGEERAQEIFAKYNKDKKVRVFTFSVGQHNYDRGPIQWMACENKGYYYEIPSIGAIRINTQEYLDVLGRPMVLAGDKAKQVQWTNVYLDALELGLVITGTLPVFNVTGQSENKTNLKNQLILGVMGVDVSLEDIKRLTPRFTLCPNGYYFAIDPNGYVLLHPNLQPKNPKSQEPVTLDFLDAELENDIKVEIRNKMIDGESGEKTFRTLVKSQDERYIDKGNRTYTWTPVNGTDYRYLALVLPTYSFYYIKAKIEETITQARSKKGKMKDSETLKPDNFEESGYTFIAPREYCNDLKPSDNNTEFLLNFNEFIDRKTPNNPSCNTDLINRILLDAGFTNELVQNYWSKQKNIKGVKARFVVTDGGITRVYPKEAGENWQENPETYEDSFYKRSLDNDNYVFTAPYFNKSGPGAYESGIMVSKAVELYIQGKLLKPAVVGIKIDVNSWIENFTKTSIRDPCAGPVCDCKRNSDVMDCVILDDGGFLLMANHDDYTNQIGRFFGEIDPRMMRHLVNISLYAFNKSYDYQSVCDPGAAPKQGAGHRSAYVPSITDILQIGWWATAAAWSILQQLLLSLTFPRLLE
# T1 sequence (P54290 945-1091 partner limits assumed, other chains not shown): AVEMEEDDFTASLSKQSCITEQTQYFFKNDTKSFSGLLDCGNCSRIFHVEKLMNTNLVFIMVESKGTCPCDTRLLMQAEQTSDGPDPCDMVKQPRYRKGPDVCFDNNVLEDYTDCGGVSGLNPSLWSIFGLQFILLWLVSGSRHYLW
# Procedure: [^3 H]-Nitrendipine binding assay was carried out according to the method described by G. T. Bolger, et al., Biochem. Biophys. Res. Comm. 104, 1604-1609 (1982). The reaction mixture contained rat cardiac microsomes (source of Ca^2+ channels), 0.5 nM [^3 H]-nitrendipinewith or without potential displacer in Tris buffer. The mixture was incubated for 60 minutes at 25° and subsequently terminated by rapid filtration through a glass fiber-filter. Membrane-bound [^3 H]-nitrendipine trapped in the filter was quantitated by scintillation counting. The inhibitory concentration (IC50) of potential displacer which gives 50% displacement of the total specifically bound [^3 H]-nitrendipine is presented as a measure of the affinity of such compound for the Ca^2+ channel.
# [2] = biological target: alpha1-adrenoceptor (rat brain membranes); assay: [3H]-Prazosin binding assay (affinity for alpha1-adrenoceptors); details: 0.2 nM [3H]-prazosin, partially purified rat brain membranes, Tris buffer, 60 minutes at 25°
# Procedure: The [^3 H]-prazosin binding assay was carried out according to the method described by Timmermans, P. B. M. W. M., Schoop, A. M. C., and Van Zwieten, P. A., Biochem. Pharmacol. 31, 899-905 (1982). The reaction mixture contained partially purified rat brain membranes (source of alpha1 -adrenoceptors), 0.2 nM [^3 H]-prazosin with or without potential displacer in Tris buffer. The mixture was incubated for 60 minutes at 25° and subsequently terminated by rapid filtration through glass fiber-filter. Receptor-bound [^3 H]-prazosin trapped in the filter was quantitated by scintillation counting. The inhibitory concentration (IC50) of potential displacer which gives 50% displacement of the total specifically bound [^3 H]-prazosin is presented as a measure of the affinity of such compound for the alpha1 -adrenoceptor.
# [3] = system: guinea pig left atria; assay: Positive inotropic effect in guinea pig left atria; details: Cavia porcellus; for EC50: left atria paced at 2 Hz, Krebs bicarbonate, 37°, cumulative addition to maximum 10^-4, read-out: EC50 = concentration that increases DT (developed tension) by 50% above the control DT; for Emax: relative to Bay K8644, expressed in percent, read-out: Intrinsic Activity: ratio of the maximum effect of the test compound to that of Bay K8644
# Procedure: Guinea pigs are killed by cervical dislocation. The left atria are removed and mounted at 1 gm resting tension in tissue baths containing oxygenated Krebs bicarbonate solution which is kept at 37°. The left atria are electrically paced at 2 Hz with square wave pulses of 1 msec duration. The voltage is set at 1.5×threshold level.
# After a one hour equilibration period, control values for developed tension (DT, gm) are recorded. Test compounds are then added to the baths, in a cumulative manner to a maximum concentration of 10^-4, to obtain a concentration-response curve. Treatment values of DT are obtained after the drug effect has reached a plateau and the exposure time for each concentration is 5-8 minutes. Percent change of the treatment value from the control value is calculated at each concentration of the test compound.
# ^a EC50 (M) = concentration that increases DT by 50% above the
# ^b Intrinsic Activity is a ratio of the maximum effect of the test
# compound to that of Bay K8644 and expressed in percent.
# [4] = system: influx of calcium ions into cells; details: background statement; cited from earlier work
Structure (SMILES),IC50 [1] [nM],IC50 [2] [nM],EC50 [3] [nM],Emax [3] [%],"effect on calcium influx, inotropic and vasoconstrictor effects [4]",coronary vasoconstricting properties [4],potency as a calcium agonist relative to CGP 28392 [4]
"COC(=O)C1=C(N)NC(C)=C([N+](=O)[O-])C1c1ccccc1S(=O)(=O)CCCCN1CCN(c2ccccc2OC)CC1 (stereo not shown) [Example 5, 2-Amino-1,4-dihydro-4-(2-{4-[4-(2-methoxyphenyl)-1-piperazinyl]-butylsulfonyl}phenyl)-6-methyl-5-nitro-3-pyridinecarboxylic acid methyl ester]",390,60,1500,119,,,
CCOC(=O)C1=C(C)NC2=C(C(=O)OC2)C1c1ccccc1OC(F)F (stereo not shown) [CGP 28392],,,,,"promote an influx of calcium ions into cells, thereby producing positive inotropic and vasoconstrictor effects",,
"COC(=O)C1=C(N)NC(C)=C([N+](=O)[O-])C1c1ccccc1SCCCCN1CCN(c2ccccc2OC)CC1 (stereo not shown) [Example 1, 2-Amino-1,4-dihydro-4-(2-{4-[4-(2-methoxyphenyl)-1-piperazinyl]-butylthio}phenyl)-6-methyl-5-nitro-3-pyridinecarboxylic acid methyl ester]",520,60,550,166,,,
"COC(=O)C1=C(N)NC(C)=C([N+](=O)[O-])C1c1ccccc1OCCCCCN1CCN(c2ccccc2OC)CC1 (stereo not shown) [Example 4, 2-Amino-1,4-dihydro-4-(2-{5-[4-(2-methoxyphenyl)-1-piperazinyl]-pentyloxy}phenyl)-6-methyl-5-nitro-3-pyridinecarboxylic acid methyl ester]",1600,3400,1600,128,,,
COC(=O)C1=C(C)NC(C)=C([N+](=O)[O-])C1c1ccccc1C(F)(F)F (stereo not shown) [Bay K8644],,,150,100,"promote an influx of calcium ions into cells, thereby producing positive inotropic and vasoconstrictor effects",coronary vasoconstricting properties,more than ten times as potent as CGP 28392
COC(=O)C1=C(N)NC(C)=C([N+](=O)[O-])C1c1ccccc1[S+]([O-])CCCN1CCN(c2ccccc2OC)CC1 (stereo not shown) [Example 12],620,52,> 100000,35,,,
COC(=O)C1=C(N)NC(C)=C([N+](=O)[O-])C1c1ccccc1SCCCCN1CCN(c2ncccn2)CC1 (stereo not shown) [Example 6],400,4500,47,113,,,
COC(=O)C1=C(N)NC(C)=C([N+](=O)[O-])C1c1ccccc1SCCCN1CCN(c2ccccc2OC)CC1 (stereo not shown) [Example 10],300,80,3500,115,,,
COC(=O)C1=C(N)NC(C)=C([N+](=O)[O-])C1c1ccccc1SCCCCCN1CCN(c2ccccc2OC)CC1 (stereo not shown) [Example 11],240,42,2400,112,,,
COC(=O)C1=C(N)NC(C)=C([N+](=O)[O-])C1c1ccccc1[S+]([O-])CCCCN1CCC(C(=O)c2ccc(F)cc2)CC1 (stereo not shown) [Example 9],2400,150,10000,56,,,
COC(=O)C1=C(N)NC(C)=C([N+](=O)[O-])C1c1ccccc1[S+]([O-])CCCCCN1CCN(c2ccccc2OC)CC1 (stereo not shown) [Example 13],1300,25,5200,119,,,
COC(=O)C1=C(N)NC(C)=C([N+](=O)[O-])C1c1ccccc1SCCCCN1CCC(C(=O)c2ccc(F)cc2)CC1 (stereo not shown) [Example 7],150,150,9600,112,,,
"COC(=O)C1=C(N)NC(C)=C([N+](=O)[O-])C1c1ccccc1[S+]([O-])CCCCN1CCN(c2ncccn2)CC1 (stereo not shown) [Example 8, 2-Amino-1,4-dihydro-4-(2-{4-[4-(2-pyrimidinyl)-1-piperazinyl]-butylsulfinyl}phenyl)-6-methyl-5-nitro-3-pyridinecarboxylic acid methyl ester]",2300,2400,500,254,,,
"COC(=O)C1=C(N)NC(C)=C([N+](=O)[O-])C1c1ccccc1OCCCCCN1CCN(c2ncccn2)CC1 (stereo not shown) [Example 3, 2-Amino-1,4-dihydro-4-(2-{5-[4-(2-pyrimidinyl)-1-piperazinyl]-pentyloxy}phenyl)-6-methyl-5-nitro-3-pyridinecarboxylic acid methyl ester]",930,160,1000,170,,,
"COC(=O)C1=C(N)NC(C)=C([N+](=O)[O-])C1c1ccccc1[S+]([O-])CCCCN1CCN(c2ccccc2OC)CC1 (stereo not shown) [Example 2, 2-Amino-1,4-dihydro-4-(2-{4-[4-(2-methoxyphenyl)-1-piperazinyl]-butylsulfinyl}phenyl)-6-methyl-5-nitro-3-pyridinecarboxylic acid methyl ester]",1700,11,5700,90,,,
